The subject of assay [1] is squid giant axon. The assay is described as follows: Axonal transport of injected fluorescent bead cargo, confocal time-lapse. Format: cell-based, North Atlantic Long-Finned Squid (Loligo pealleii).
The target of assay [2] is APP-C peptide of the affinity measurement (15 aa; human or squid sequence not told). Briefly: pull-down.

For the substance GYENPTYKFFEQMQN [hAPP-C], the Run length in assay [1] (calculated as v1/k1) is reported as 11.5 μm. Also, in assay [1] (from average run time, Poisson distribution, run v1 > 0.1 μm s^−1, about 40 runs), the “Detachment rate k1” value came to 0.0322 s⁻¹.

Consider “kinesin-1 of rat brain extract (from UniProt Q2PQA9 1-963) (complex)”, for which the Kd in assay [2] is 4.7 nM.

Values taken from paper PMC3625656 (Physical biology, 2012).
